Experimental findings from patent US7517517B2 (Janssen Pharmaceutica N.V., priority 2002, dated 2009) are described below.

The target of assay [1] is T1, rat mGlu4 receptor (Rattus norvegicus, UniProt P31423).
T1 construct: host or cells: CHO-dhfr- cells
Nature of the assay: [3H]Compound A binding to membranes from CHO-dhfr− cells expressing the rat mGlu4 receptor. The conditions noted are these: 20 nM [3H]Compound A, 40 μg membranes. On the procedure:
(§1) Confluent cells were washed in ice-cold phosphate-buffered saline and stored at −20° C. until membrane preparation. After thawing, cells were suspended in 50 mM Tris-HCl, pH 7.4 and collected through centrifugation for 10 min at 23,500 g at 4° C. The cells were lysed in 10 mM hypotonic Tris-HCl, pH 7.4. After recentrifugation for 20 min at 30,000 g at 4° C., the pellet was homogenized with an Ultra Turrax homogenizer in 50 mM Tris-HCl, pH 7.4. Protein concentrations were measured by the Bio-Rad protein assay using bovine serum albumin as standard.
(§2) After thawing, the membranes were homogenized using an Ultra Turrax homogenizer and suspended in ice-cold binding buffer containing 50 mM Tris-HCl (pH 7.4), 1.2 mM MgCl2, 2 mM CaCl2. For [^3H]Compound A binding, 20 to 160 μg membrane protein and a final concentration of 20 nM [^3H]Compound A was used. As indicated in the results section, different blancs were used to define non-specific binding. Incubation time and temperature as well as filtration were as described for rat mGlu1a receptor CHO-dhfr^− membranes. Expression of rat mGlu2, -3, -5 and mGlu6 receptors was confirmed by specific binding of [^3H]LY341495 (mGlu2, -3 and -6) or [^3H]MPEP (mGlu5). For [^3H]LY341495 binding, 1 nM (mGlu2 and mGlu3) or 10 nM (mGlu6) [^3H]LY341495 was used. […] Assay mixtures were incubated for 30 min (mGlu2 and mGlu3) or 60 min (mGlu6) at 4° C. […]

The target of assay [2] is T2, rat mGlu3 receptor (Rattus norvegicus, UniProt P31422).
T2 construct: host or cells: CHO-dhfr- cells
T2 sequence (P31422 23-879): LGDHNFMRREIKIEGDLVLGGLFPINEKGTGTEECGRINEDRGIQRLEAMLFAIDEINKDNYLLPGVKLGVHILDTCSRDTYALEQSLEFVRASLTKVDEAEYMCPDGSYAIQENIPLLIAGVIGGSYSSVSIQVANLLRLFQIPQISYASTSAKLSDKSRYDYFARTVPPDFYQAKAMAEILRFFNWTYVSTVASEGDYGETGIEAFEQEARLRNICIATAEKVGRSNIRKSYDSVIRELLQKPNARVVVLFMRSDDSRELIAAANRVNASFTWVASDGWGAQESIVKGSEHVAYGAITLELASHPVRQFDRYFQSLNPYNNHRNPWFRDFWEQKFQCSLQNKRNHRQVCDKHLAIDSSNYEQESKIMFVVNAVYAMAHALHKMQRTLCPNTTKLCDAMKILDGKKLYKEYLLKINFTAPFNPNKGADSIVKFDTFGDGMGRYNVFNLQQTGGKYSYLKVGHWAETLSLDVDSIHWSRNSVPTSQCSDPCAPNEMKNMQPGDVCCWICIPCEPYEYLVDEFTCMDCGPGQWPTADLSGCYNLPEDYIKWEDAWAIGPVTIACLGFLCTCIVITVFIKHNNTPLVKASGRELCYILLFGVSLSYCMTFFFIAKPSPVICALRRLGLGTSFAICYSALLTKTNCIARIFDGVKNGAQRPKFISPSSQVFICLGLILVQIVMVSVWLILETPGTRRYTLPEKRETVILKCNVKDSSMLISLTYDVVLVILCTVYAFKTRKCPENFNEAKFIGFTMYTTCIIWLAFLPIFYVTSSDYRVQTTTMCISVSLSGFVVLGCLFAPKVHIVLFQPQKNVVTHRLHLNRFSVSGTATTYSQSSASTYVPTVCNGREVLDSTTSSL
The experiment in a line: [3H]Compound A binding to membranes from CHO-dhfr− cells expressing the rat mGlu3 receptor. The conditions noted are these: 20 nM [3H]Compound A, 40 μg membranes. On the procedure: as §1, §2

The target in assay [3] is T3, rat mGlu6 receptor (Rattus norvegicus, UniProt P35349).
T3 construct: host or cells: CHO-dhfr- cells
T3 sequence (P35349 24-871): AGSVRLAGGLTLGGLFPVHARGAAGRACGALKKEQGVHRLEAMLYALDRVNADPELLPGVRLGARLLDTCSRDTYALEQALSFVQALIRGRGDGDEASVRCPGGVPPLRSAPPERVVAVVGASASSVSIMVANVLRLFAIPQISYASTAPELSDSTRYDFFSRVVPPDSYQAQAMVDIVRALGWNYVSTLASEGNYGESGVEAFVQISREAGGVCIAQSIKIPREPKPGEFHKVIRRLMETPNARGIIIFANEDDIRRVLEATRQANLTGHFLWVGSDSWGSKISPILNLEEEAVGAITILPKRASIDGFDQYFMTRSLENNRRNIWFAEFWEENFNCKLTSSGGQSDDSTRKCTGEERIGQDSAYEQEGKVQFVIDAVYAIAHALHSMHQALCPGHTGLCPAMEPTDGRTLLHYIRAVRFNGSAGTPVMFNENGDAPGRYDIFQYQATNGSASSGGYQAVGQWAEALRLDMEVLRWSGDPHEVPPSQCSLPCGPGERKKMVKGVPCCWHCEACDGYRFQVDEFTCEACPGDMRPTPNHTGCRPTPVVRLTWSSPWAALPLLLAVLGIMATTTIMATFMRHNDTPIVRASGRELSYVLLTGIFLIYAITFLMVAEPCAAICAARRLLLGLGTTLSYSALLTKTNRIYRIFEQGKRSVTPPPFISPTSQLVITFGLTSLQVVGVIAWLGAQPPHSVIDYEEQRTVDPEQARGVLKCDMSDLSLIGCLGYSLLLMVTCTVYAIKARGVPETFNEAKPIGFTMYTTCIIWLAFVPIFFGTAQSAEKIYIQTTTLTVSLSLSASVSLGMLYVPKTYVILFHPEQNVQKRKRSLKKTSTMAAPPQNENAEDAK
Nature of the assay: [3H]Compound A binding to membranes from CHO-dhfr− cells expressing the rat mGlu6 receptor. The settings on record: 20 nM [3H]Compound A, 40 μg membranes; Compound 135 as blanc. The protocol:
as §1, §2

In assay [4] the target is mGlu1 receptor (Rattus norvegicus, UniProt P23385). Nature of the assay: [3H]Compound A binding and autoradiography on rat brain sections. On the procedure:
Tissue preparation. Male Wistar rats (200 g) were sacrificed by decapitation. Brains were immediately removed from the skull and were rapidly frozen in dry-ice-cooled 2-methylbutane (−40° C.). Brains were then stored at −70° C. until sectioning. Twenty-micrometer-thick sagittal sections were cut using a Leica C3050 cryostat microtome (Leica Microsystems, Wetzlar, Germany) and thaw-mounted on SuperFrost Plus microscope slides (Menzle-glaser, Germany). The sections were then kept at −70° C. until use.
Receptor autoradiography. Sections were thawed and dried under a stream of cold air, preincubated (3×5 min) in 50 mM Tris-HCl, 1.2 mM MgCl2, 2 mM CaCl2, 0.1% BSA pH 7.4 at room temperature. […] After the incubation, the excess of radioligand was washed off (3×5 min) in ice-cold buffer containing 50 mM Tris-HCl, 1.2 mM MgCl2 and 2 mM CaCl2, followed by a rapid dip in cold distilled water. The sections were dried under a stream of cold air and then exposed to [^3H]Hyperfilm (Amersham, UK) for 6 weeks at room temperature. The films were developed manually in Kodak D19 and fixed with Kodak Readymatic. Some sections were exposed to a Fuji Imaging Plate for 2 days at room temperature and scanned using a Fujix Bass 2000 phosphoimager.

Molecules are shown by their SMILES. Marks after values point to notes of the source that are not given here.

T1 sequence (P31423 33-912): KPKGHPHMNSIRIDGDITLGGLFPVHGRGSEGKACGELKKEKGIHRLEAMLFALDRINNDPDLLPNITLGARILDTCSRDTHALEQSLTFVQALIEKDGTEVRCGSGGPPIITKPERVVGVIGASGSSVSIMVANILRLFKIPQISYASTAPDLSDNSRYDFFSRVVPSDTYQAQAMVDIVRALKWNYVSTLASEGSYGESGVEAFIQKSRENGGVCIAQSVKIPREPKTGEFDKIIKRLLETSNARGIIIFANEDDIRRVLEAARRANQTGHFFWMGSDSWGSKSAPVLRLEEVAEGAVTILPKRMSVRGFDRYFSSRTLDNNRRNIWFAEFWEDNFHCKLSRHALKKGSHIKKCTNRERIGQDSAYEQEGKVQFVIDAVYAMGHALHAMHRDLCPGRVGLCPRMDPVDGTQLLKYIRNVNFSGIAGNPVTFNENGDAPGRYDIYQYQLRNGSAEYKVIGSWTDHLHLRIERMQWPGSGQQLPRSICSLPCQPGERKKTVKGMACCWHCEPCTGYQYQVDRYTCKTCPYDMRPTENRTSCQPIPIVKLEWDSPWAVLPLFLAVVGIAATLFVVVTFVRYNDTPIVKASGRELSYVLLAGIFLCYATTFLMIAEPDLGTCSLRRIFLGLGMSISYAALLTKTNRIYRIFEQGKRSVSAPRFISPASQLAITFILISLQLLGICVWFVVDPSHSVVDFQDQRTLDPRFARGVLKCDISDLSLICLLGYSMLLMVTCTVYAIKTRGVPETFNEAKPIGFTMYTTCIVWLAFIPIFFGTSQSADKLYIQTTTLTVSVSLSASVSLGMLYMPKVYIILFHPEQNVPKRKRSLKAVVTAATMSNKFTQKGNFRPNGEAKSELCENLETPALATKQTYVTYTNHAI

As for `[3H]c1ccc(CC(=O)c2ccc3nc4c(cc3c2)CCCO4)cc1` [[^3H]Compound A], the entries for the “SB (fmoles/mg protein), mGlu4” value in assay [1] (Compound 135 as blanc) and in assay [1] (various blancs: 0.1 mM L-SOP) were 82 fmoles/mg protein and 57^b fmoles/mg protein, respectively. For the same compound, the “SB (fmoles/mg protein), mGlu3” value in assay [2] (Compound 135 as blanc) is reported as 0 fmoles/mg protein; in assay [2] (various blancs: 1 mM glutamate), 0^a fmoles/mg protein. Moreover, the “SB (fmoles/mg protein), mGlu6” value in assay [3] came to 0 fmoles/mg protein. Also, the “specific binding in autoradiography” value in assay [4] (CA3 field and dentate gyrus of hippocampal formation, thalamus, olfactory tubercle, amygdala, substantia nigra reticulata) is on record as “moderate signal”; in assay [4] (cerebral cortex, caudate putamen, ventral pallidum, nucleus accumbens) it was “lower labelling”; in assay [4] (molecular layer of the cerebellum) it was “Very high specific binding”.
